The results in this text go back to ChEMBL document CHEMBL1151121, “1H-nmr analysis of herbimycins and dihydro-herbimycins” (1988).

One experiment deals with P388. The experiment can be described thus: Cytotoxicity against mouse P388 cells. It is filed as functional. The note with it: read-out: ED50 (the source's name).
In the next experiment the test system is KB. The experiment can be described thus: Cytotoxicity against human KB cells. The note with it: read-out: ED50 (the source's name). In kind it is functional.

≈ marks a conversion by molar mass, not a printed value.

`CO[C@H]1/C=C\C=C(/C)C(=O)Nc2cc(O)cc(c2O)C[C@@H](C)C[C@H](OC)[C@H](O)[C@@H](C)/C=C(\C)[C@@H]1OC(N)=O`: the EC50 came to 0.34 mg/L (≈ 0.638 µM) in the experiment with P388 and 3.49 mg/L (≈ 6.55 µM) in the experiment with KB.

As to `CO[C@H]1[C@@H](OC)C[C@H](C)[C@@H](OC)c2cc(O)cc(c2O)NC(=O)/C(C)=C/C=C\[C@H](OC)[C@@H](OC(N)=O)/C(C)=C/[C@@H]1C` [DIHYDRO-HERBIMYCIN A], the EC50 was determined as 0.022 mg/L (≈ 0.0381 µM) in the experiment on P388 and 0.3 mg/L (≈ 0.52 µM) in the experiment with KB.

For the molecule `CO[C@H]1/C=C\C=C(/C)C(=O)NC2=CC(=O)C=C(C2=O)[C@H](OC)[C@@H](C)C[C@H](OC)[C@H](O)[C@@H](C)/C=C(\C)[C@@H]1OC(N)=O` [HERBIMYCIN C], the EC50 came out at 0.17 mg/L (≈ 0.303 µM) with P388 and 0.12 mg/L (≈ 0.214 µM) in the experiment on KB.

Take `CO[C@H]1[C@@H](OC)C[C@H](C)[C@@H](OC)C2=CC(=O)C=C(NC(=O)/C(C)=C/C=C/[C@H](OC)[C@@H](OC(N)=O)/C(C)=C/[C@@H]1C)C2=O` [HERBIMYCIN]: the EC50 in the experiment with P388 was 0.0051 mg/L (≈ 0.00887 µM); in the experiment on KB, 0.12 mg/L (≈ 0.209 µM).
